What was measured:
Assay in all cases: relative viability (nuclei count vs DMSO), 5 days (fraction); higher = more cells survive
PAC-1 + Trametinib = compound: C=CCc1cccc(/C=N/NC(=O)CN2CCN(Cc3ccccc3)CC2)c1O [PAC-1] + CC(=O)Nc1cccc(-n2c(=O)n(C3CC3)c(=O)c3c(Nc4ccc(I)cc4F)n(C)c(=O)c(C)c32)c1 [Trametinib] (partner 0.02 µM)
How it was run: (§1)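 Values are medians from duplicate plates. Each reflects relative viability, defined as the nuclei count of treated wells over that of vehicle wells. Lung cancer cell lines in 1536-well plates were pin-tool dosed one day after seeding with one drug alone or with a fixed anchor-drug dose plus five library-drug doses (not always all listed) in √10 steps, then fixed, stained and imaged at 4× after 5 days.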

PAC-1 + Linsitinib = compound: C=CCc1cccc(/C=N/NC(=O)CN2CCN(Cc3ccccc3)CC2)c1O [PAC-1] + C[C@]1(O)C[C@@H](c2nc(-c3ccc4ccc(-c5ccccc5)nc4c3)c3c(N)nccn32)C1 [Linsitinib] (partner 1 µM)
How it was run: as §1

PAC-1 + Navitoclax = compound: C=CCc1cccc(/C=N/NC(=O)CN2CCN(Cc3ccccc3)CC2)c1O [PAC-1] + CC1(C)CCC(c2ccc(Cl)cc2)=C(CN2CCN(c3ccc(C(=O)NS(=O)(=O)c4ccc(N[C@H](CCN5CCOCC5)CSc5ccccc5)c(S(=O)(=O)C(F)(F)F)c4)cc3)CC2)C1 [Navitoclax] (partner 0.5 µM)
How it was run: as §1

BMX-IN-1 + Dasatinib = compound: C=CC(=O)Nc1cc(-n2c(=O)ccc3cnc4ccc(-c5ccc(NS(C)(=O)=O)cc5)cc4c32)ccc1C [BMX-IN-1] + Cc1nc(Nc2ncc(C(=O)Nc3c(C)cccc3Cl)s2)cc(N2CCN(CCO)CC2)n1 [Dasatinib] (partner 0.075 µM)
How it was run: as §1

Cell Line | relative viability (PAC-1 + Trametinib; first compound 0.02 µM) | relative viability (PAC-1 + Trametinib; first compound 0.06325 µM) | relative viability (PAC-1 + Trametinib; first compound 0.2 µM) | relative viability (PAC-1 + Trametinib; first compound 2 µM) | relative viability (PAC-1 + Linsitinib; first compound 0.02 µM) | relative viability (PAC-1 + Linsitinib; first compound 0.06325 µM) | relative viability (PAC-1 + Linsitinib; first compound 0.2 µM) | relative viability (PAC-1 + Linsitinib; first compound 2 µM) | relative viability (PAC-1 + Navitoclax; first compound 0.02 µM) | relative viability (PAC-1 + Navitoclax; first compound 0.06325 µM) | relative viability (PAC-1 + Navitoclax; first compound 0.2 µM) | relative viability (PAC-1 + Navitoclax; first compound 2 µM) | relative viability (BMX-IN-1 + Dasatinib; first compound 0.02 µM) | relative viability (BMX-IN-1 + Dasatinib; first compound 0.2 µM) | relative viability (BMX-IN-1 + Dasatinib; first compound 0.6325 µM) | relative viability (BMX-IN-1 + Dasatinib; first compound 2 µM)
NCI-H3122 | 0.213 | 0.253 | 0.205 | 0.189 | 1.03 | 1.01 | 0.992 | 1.03 | 0.975 | 1.02 | 1.01 | 0.993 | 1.03 | 0.936 | 0.837 | 0.84
PC-3 [JPC-3] | 0.613 | 0.692 | 0.711 | 0.726 | 1.04 | 0.965 | 0.948 | 0.97 | 0.894 | 0.817 | 0.708 | 0.844 | 1 | 1.19 | 1.07 | 0.943
PC-14 | 0.815 | 0.704 | 0.781 | 0.793 | 0.967 | 1.03 | 0.91 | 0.925 | 0.968 | 0.975 | 0.959 | 1.03 | 0.313 | 0.227 | 0.339 | 0.279
RERF-LC-KJ | 0.901 | 0.91 | 0.791 | 0.79 | 0.904 | 0.818 | 0.861 | 0.887 | 0.859 | 0.932 | 1.11 | 0.733 | 1.08 | 0.883 | 0.82 | 0.939
SK-LU-1 | 0.495 | 0.481 | 0.484 | 0.584 | 1.17 | 1.06 | 1.04 | 0.716 | 0.803 | 0.892 | 0.733 | 0.888 | 0.22 | 0.174 | 0.169 | 0.171
SW 1573 | 0.492 | 0.623 | 0.528 | 0.625 | 0.826 | 0.76 | 0.759 | 0.914 | 0.825 | 1.03 | 0.825 | 1.03 | 0.531 | 0.63 | 0.456 | 0.528
UMC-11 | 0.731 | 0.742 | 0.878 | 0.713 | 0.997 | 1.03 | 0.996 | 1.04 | 0.334 | 0.311 | 0.308 | 0.318 | 0.542 | 0.591 | 0.549 | 0.475

From the supplement of paper PMC10307832
